The structures appear in SMILES notation.

Assay [1] relates to KRAS G12D mutant human metastatic pancreatic cancer cell AsPc-1. As to the kind of experiment: 3D cell proliferation inhibition assay, AsPc-1. It is filed as cell-based. Conditions: ASPC1, 168 h, AsPc-1, 7 days, CTG, numeric values. The text has this:
(§1) The inhibitory effects of the compounds on 3D cell proliferation were investigated on KRAS G12D mutant human lung cancer cell A427, KRAS G12D mutant human gastric cancer cell AGS, KRAS G12D mutant human metastatic pancreatic cancer cell AsPc-1, KRAS G12D mutant human pancreatic cancer cell Panc 04.03, KRAS G12D mutant human pancreatic cancer cell HPAC, KRAS G12V mutant human lung squamous cell carcinoma cell SW900, and KRAS WT human gastric cancer cell MKN1. The specific procedures were as follows:
(§2) 10 μL of each compound solution diluted in a gradient was added to corresponding wells of a 96-well low-adsorption microplate (PerkinElmer), so that the final concentrations of the test compounds in the reaction system were in a range of 10000-0.026 nM. The final concentration of DMSO was 0.2%. Then 90 µL of cells were correspondingly seeded into each well to achieve a cell density of 5×10^2 cells/well (the cell density of SW900 was 5×10^1 cells/well, and the cell density of MKN1 was 1×10^3 cells/well). In addition to test wells for the test compounds, both a DMSO control well and a medium control well were set, with the DMSO control well containing DMSO and cells and the medium well containing only a medium. After the sample loading, the 96-well low-adsorption microplate was incubated in an incubator at 37° C. with 5% carbon dioxide for 7 days. After 7 days, the microplate was taken out, and 100 μL of CTG reagent (Promega) was added to each well. The plate was incubated at room temperature for 60 min and read on a microplate reader EnVision by the chemiluminescence program. The inhibition rates of the compounds at each concentration were calculated using the formula for the percentage inhibition of cell proliferation: inhibition rate %=(mean value of DMSO control group−single concentration reading value of compound)/(mean value of DMSO control group−mean value of medium control group)×100. Then non-linear curve fittings for logarithmic concentration-inhibition rate were performed by GraphPad Prism 8, and the IC50 values of the compounds were obtained (Table 5).

Assay [2] concerns KRAS G12D mutant human pancreatic cancer cell HPAC. The experiment in a line: 3D cell proliferation inhibition assay, HPAC. Conditions: 168 h, 7 days, CTG. It is filed as cell-based.
Text: as §1, §2

In assay [3] the target is T1, Human KRAS G12D 6His-tagged (Homo sapiens, UniProt P01116, G12D).
T1 construct: purchased PerkinElmer
As to the kind of experiment: KRAS-G12D/GTP binding assay (HTRF). On the procedure:
In this method, the inhibitory effects of the compounds on the binding of KRAS-G12D to GTP were assayed by a homogeneous time-resolved fluorescence (HTRF) technique using a KRAS-G12D/GTP binding assay kit (PerkinElmer).
The experimental procedures were as follows (refer to the kit instructions for detailed test methods): the compounds of the present disclosure were each firstly dissolved in DMSO at a concentration of 20 mM, and then diluted in an equal gradient with a buffer in the kit, so that the final concentrations of the test compounds in the reaction system were in a range of 0.02-5000 nM, and the final concentration of DMSO was 0.5%. 5 μL of each compound was incubated with 5 μL of 1× Human KRAS G12D 6His-tagged (PerkinElmer), 5 μL of 1×6His Eu Cryptate Antibody (PerkinElmer), and 5 μL of 1×GTP Red reagent (PerkinElmer) in a 384-well plate (Greiner) at 25° C. for 1 h. After the incubation was completed, the fluorescence intensity of each well was measured at the excitation wavelength of 337 nm and the emission wavelengths of 620 nm and 665 nm with an EnVision microplate reader (PerkinElmer) in the HTRF mode, and Ratio values were calculated using the formula: Ratio=(665 nm/620 nm)×[…]. The inhibition rates of the compounds at each concentration were calculated by comparing the fluorescence intensity ratio with that of the control group. Then non-linear curve fittings for logarithmic concentration-inhibition rate were performed using the GraphPad Prism 8 analysis software, and the IC50 values of the compounds were obtained (Table 2).
(In general: TR-FRET usually uses a lanthanide donor and a delayed reading to cut background.)

Assay [4] relates to KRAS G12D mutant human lung cancer cell A427. The experiment in a line: 3D cell proliferation inhibition assay, A427. Conditions: A-427, 168 h, A427, 7 days, CTG, class symbols. It is filed as cell-based.
Text: as §1, §2

In assay [5] the test system is KRAS G12D mutant human gastric cancer cell AGS. As to the kind of experiment: 3D cell proliferation inhibition assay, AGS. It is filed as cell-based. Conditions: 168 h, 7 days, CTG, class symbols. In short, it runs like this:
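CellTiter-Glo luminescence, read after 60 min at room temperature, measured growth of 3D cultures (5×10^2 cells/well) exposed for 7 days to compounds at final concentrations of 10000–0.026 nM in 0.2% DMSO. Percent inhibition, scaled between DMSO-treated cells and medium alone, was fitted against log concentration for IC50.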

The next assay concerns the target T2, KRAS-G12D (Homo sapiens, UniProt P01116, G12D).
T2 construct: endogenous in cells; host or cells: A-427 (ATCC), AGS, AsPc-1, Panc 04.03
As to the kind of experiment: KRAS-G12D degradation assay (Western Blot), A-427 cells. The conditions noted are these: A427 cells, 24 h, class symbols; for Dmax: A-427. It is filed as cell-based. In a few lines:
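Each KRAS G12D mutant line (A-427, AGS, AsPc-1, Panc 04.03) was seeded at 5×10^5 cells/well and treated 24 h at 37 °C with 0.03–3000 nM compound (final DMSO 0.25%). KRAS in lysates was measured by Western blot, normalized to β-actin and compared with controls, giving DC50 and Dmax from curve fits.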
In general terms: A western blot detects proteins with antibodies after separation by electrophoresis.

T1 sequence (P01116 1-188 isoform P01116-2 G12D): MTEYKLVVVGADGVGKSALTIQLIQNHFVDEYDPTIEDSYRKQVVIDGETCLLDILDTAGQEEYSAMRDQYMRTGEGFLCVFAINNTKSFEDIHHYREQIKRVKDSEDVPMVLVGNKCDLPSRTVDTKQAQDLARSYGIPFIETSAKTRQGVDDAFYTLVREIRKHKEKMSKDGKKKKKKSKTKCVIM
T2 sequence (P01116 1-188 isoform P01116-2 G12D): as above

As usually defined, the IC50 is the point on the concentration scale where inhibition reaches its midpoint. Low readings indicate greater potency in that assay, high ones weaker potency in that assay. On to `C#Cc1c(F)ccc2cc(O)cc(-c3ncc4c(N5CC6CCC(C5)N6)nc(OCC(CN5CCN(CC6CCC7(CC6)CCN(C(=O)c6ccc(OC)c(N8CCC(=O)NC8=O)c6)CC7)CC5)OC)nc4c3F)c12` (stereo not drawn) [Example 105, 1-(5-(9-((4-(3-((4-(3,8-diazabicyclo[3.2.1]octan-3-yl)-7-(8-ethynyl-7-fluoro-3-hydroxynaphthalen-1-yl)-8-fluoropyrido[4,3-d]pyrimidin-2-yl)oxy)-2-methoxypropyl)piperazin-1-yl)methyl)-3-azaspiro[5.5]undecane-3-carbonyl)-2-methoxyphenyl)dihydropyrimidine-2,4(1H,3H)-dione], for which the IC50 in assay [1] amounted to 93.5 nM; in assay [2], 12.7 nM.
Take `C#Cc1c(F)ccc2cc(O)cc(-c3ncc4c(N5CC6CCC(C5)N6)nc(OCCN5CCN(CCC6CCC7(CC6)CCN(C(=O)c6ccc(Cl)c(N8CCC(=O)NC8=O)c6)CC7)CC5)nc4c3F)c12` [Example 61, 1-(5-(9-(2-(4-(2-((4-(3,8-diazabicyclo[3.2.1]octan-3-yl)-7-(8-ethynyl-7-fluoro-3-hydroxynaphthalen-1-yl)-8-fluoropyrido[4,3-d]pyrimidin-2-yl)oxy)ethyl)piperazin-1-yl)ethyl)-3-azaspiro[5.5]undecane-3-carbonyl)-2-chlorophenyl)dihydropyrimidine-2,4(1H,3H)-dione]: the IC50 is 21.1 nM in assay [3] (numeric values), 100 to 500 nM in assay [4] and not above 50 nM in assay [5].
The DC50 is the concentration at which degradation of the target reaches its halfway point. What is called Dmax is the largest share of the target that was removed. High values mean a fuller loss of target, low ones a partial loss of target. Consider `C#Cc1c(F)ccc2cc(O)cc(-c3ncc4c(N5CC6CCC(C5)N6)nc(OCC5(CN6CCC(CN7CCC8(CC7)CCN(C(=O)c7ccc(OC)c(N9CCC(=O)NC9=O)c7)CC8)CC6)CC5)nc4c3F)c12` [Example 38, 1-(5-(9-((1-((1-(((4-(3,8-diazabicyclo[3.2.1]octan-3-yl)-7-(8-ethynyl-7-fluoro-3-hydroxynaphthalen-1-yl)-8-fluoropyrido[4,3-d]pyrimidin-2-yl)oxy)methyl)cyclopropyl)methyl)piperidin-4-yl)methyl)-3,9-diazaspiro[5.5]undecane-3-carbonyl)-2-methoxyphenyl)dihydropyrimidine-2,4(1H,3H)-dione], for which the IC50 in assay [3] (class symbols), in assay [4] and in assay [5] was not above 50 nM in each case. The same compound came in with a DC50 at KRAS-G12D not above 50 nM. Also, at KRAS-G12D, the greatest degradation seen (Dmax) is 80 to 100%.
On to `C#Cc1c(F)ccc2cc(O)cc(-c3ncc4c(N5CC6CCC(C5)N6)nc(OCC56CC(CN7CCN(CCC8CCC9(CC8)CCN(C(=O)c8ccc(Cl)c(N%10CCC(=O)NC%10=O)c8)CC9)CC7)(C5)C6)nc4c3F)c12` [Example 56, 1-(5-(9-(2-(4-((3-(((4-(3,8-diazabicyclo[3.2.1]octan-3-yl)-7-(8-ethynyl-7-fluoro-3-hydroxynaphthalen-1-yl)-8-fluoropyrido[4,3-d]pyrimidin-2-yl)oxy)methyl)bicyclo[1.1.1]pentan-1-yl)methyl)piperazin-1-yl)ethyl)-3-azaspiro[5.5]undecane-3-carbonyl)-2-chlorophenyl)dihydropyrimidine-2,4(1H,3H)-dione], for which the IC50 in assay [3] (class symbols) is 50 to 100 nM; in assay [4], 50 to 100 nM; in assay [5], not above 50 nM. For the same compound, the DC50 at KRAS-G12D was not above 50 nM. This compound also had a Dmax on KRAS-G12D of 50 to 80%.
For `C#Cc1c(F)ccc2cc(O)cc(-c3ncc4c(N5CC6CCC(C5)N6)nc(OCC5(CN6CC7CC6CN7CC6CCC7(CC6)CCN(C(=O)c6ccc(Cl)c(N8CCC(=O)NC8=O)c6)CC7)CC5)nc4c3F)c12` (stereo not drawn) [Example 59, 1-(5-(9-((5-((1-(((4-(3,8-diazabicyclo[3.2.1]octan-3-yl)-7-(8-ethynyl-7-fluoro-3-hydroxynaphthalen-1-yl)-8-fluoropyrido[4,3-d]pyrimidin-2-yl)oxy)methyl)cyclopropyl)methyl)-2,5-diazabicyclo[2.2.1]heptan-2-yl)methyl)-3-azaspiro[5.5]undecane-3-carbonyl)-2-chlorophenyl)dihydropyrimidine-2,4(1H,3H)-dione], the IC50 was not above 50 nM in assay [3] (class symbols), 100 to 500 nM in assay [4] and not above 50 nM in assay [5]. In addition, at KRAS-G12D, the DC50 is 1000 to 10000 nM. At KRAS-G12D, this compound yielded a maximal degradation (Dmax) of less than 30%.
`Cc1ccc(C(=O)N2CCC3(CCC(CN4CCN(CC5(COc6nc(N7CC8CCC(C7)N8)c7cnc(-c8cccc9cccc(Cl)c89)c(F)c7n6)CC5)CC4)CC3)CC2)cc1N1CCC(=O)NC1=O` [Example 45, 1-(5-(9-((4-((1-(((4-(3,8-diazabicyclo[3.2.1]octan-3-yl)-7-(8-chloronaphthalen-1-yl)-8-fluoropyrido[4,3-d]pyrimidin-2-yl)oxy)methyl)cyclopropyl)methyl)piperazin-1-yl)methyl)-3-azaspiro[5.5]undecane-3-carbonyl)-2-methylphenyl)dihydropyrimidine-2,4(1H,3H)-dione]: the results for the IC50 in assay [3] (class symbols), in assay [4] and in assay [5] were not above 50 nM, 50 to 100 nM and 50 to 100 nM, respectively. Further, the DC50 at KRAS-G12D fell in the range of 1000 to 10000 nM. In addition, on KRAS-G12D, the Dmax was less than 30%.
With `C#Cc1c(F)ccc2cc(O)cc(-c3ncc4c(N5CC6CCC(C5)N6)nc(OCC5(CN6CC(CN7CCC8(CC7)CCN(C(=O)c7ccc(OC)c(N9CCC(=O)NC9=O)c7)CC8)C6)CC5)nc4c3F)c12` [Example 40, 1-(5-(9-((1-((1-(((4-(3,8-diazabicyclo[3.2.1]octan-3-yl)-7-(8-ethynyl-7-fluoro-3-hydroxynaphthalen-1-yl)-8-fluoropyrido[4,3-d]pyrimidin-2-yl)oxy)methyl)cyclopropyl)methyl)azetidin-3-yl)methyl)-3,9-diazaspiro[5.5]undecane-3-carbonyl)-2-methoxyphenyl)dihydropyrimidine-2,4(1H,3H)-dione], the results for the IC50 in assay [3] (class symbols), in assay [4] and in assay [5] were not above 50 nM, 1000 to 10000 nM and 100 to 500 nM, respectively. Further, the DC50 at KRAS-G12D was in the range of 1000 to 10000 nM. Also, the Dmax at KRAS-G12D was in the range of 30 to 50%.

These data come from patent US20260166159A1, “KRAS G12D DEGRADATION AGENT, AND PREPARATION METHOD AND USE THEREFOR” (LEADINGTAC PHARMACEUTICAL (SHAOXING) CO., LTD., priority 2022, published 2026).
